Assay results reported in paper PMC6273811, “Synthesis and Antitumor Evaluation of Novel 5-Hydrosulfonyl-1H-benzo[d]imidazol-2(3H)-one Derivatives” (Molecules, 2016).
Values after ≈ are worked out from the molar mass of the structure shown.

How the values were obtained:
MDA-MB-468 = experiment: MTT cell proliferation assay, MDA-MB-468; format: cell-based; details: Homo sapiens, 48 h, read-out: In vitro cytotoxic activity IC50, MDA-MB-48
Procedure: (§1) Compounds 5a–o were evaluated for their cytotoxic activity in vitro against some human cancer cell lines, including A549, HCC1937 and MDA-MB-468 by applying a MTT colorimetric assay. Doxorubicin was used as positive control. The calculated IC50 values were reported differently according to the different cancer cells.
(§2) All target compounds were evaluated for their cytotoxic activities (%) in vitro against human cancer cell lines, including A549, HCC1937 and MDA-MB-468, by applying the MTT colorimetric assay. The cell concentration was adjusted to 2 × 10^4/mL using complete culture medium, then 100 μL cell suspension was inoculated in each well of a 96-well culture plate and cultured for 24 h. All the target compounds were adjusted to different concentrations ranging from 1.25 μmol/L to 40 μmol/L, then 100 μL solution was added to each well of 96-well culture plate and 100 μL complete culture medium was added to the control group. Cells were placed under 5% CO2 at 37 °C and cultured for 48 h. Then 5 mg/mL MTT 20 μL was added to each well of 96-well culture plate and cultured for another 2~4 h. The medium was removed and 150 μL DMSO was added to each well of 96-well culture plate, then oscillated and mixed 15 min. The absorbance (A) of each well was measured in terms of optical density at a wavelength of 570 nm, each cell viability assay was performed in triplicate and taken the average value, then calculated the IC50. Doxorubicin was the positive control drug.

A549 = experiment: MTT cell proliferation assay, A549; format: cell-based; details: Homo sapiens, 48 h, read-out: In vitro cytotoxic activity IC50, A549
Procedure: as §1, §2

HCC1937 = experiment: MTT cell proliferation assay, HCC1937; format: cell-based; details: Homo sapiens, 48 h, read-out: In vitro cytotoxic activity IC50, HCC1937
Procedure: as §1, §2

[1] = In vitro cytotoxic activity, Hek293; format: cell-based; details: human, Hek293 cells; unit inferred
Text: Table 1 In vitro cytotoxic activity of target compounds: 5a–o. | column: Hek293

[2] = test system: A549, HCC1937 and MDA-MB-468 cell lines; experiment: MTT assay, statements over the three cell lines; format: cell-based, human; details: for Activity toward the cell lines (in words) / Potency compared to 5a and 5b: SAR discussion; for IC50: Homo sapiens, range over the three cell lines and over 5a and 5b, read-out: IC50 toward the A549, HCC1937 and MDA-MB-468 cell lines
Procedure: as §1, §2

HCC1937 cells = experiment: Annexin V-FITC/PI flow cytometry apoptosis; format: cell-based, human; details: control 6.7%
Procedure: When the concentration of 5b was 7.5 μM, the proportion of apoptotic cells was 11.4%. When the concentration was 10 μM, the proportion of apoptotic cells was 13.4%. When the concentration was 15 μM, the proportion of apoptotic cells was 12.9%. When the concentration was 20 μM, the proportion of apoptotic cells was 29%. The proportion of apoptotic cells in control group was 6.7%. As the concentration increased, the number of apoptotic cells increased gradually and the number of apoptotic cells and concentration were directly proportional, although there was no significant difference between 10 μM and 15 μM.
The Annexin V-FITC apoptosis detection kit was used to detect apoptotic cells according to the manufacturer’s protocol. Briefly, cells were gently washed with PBS and collected using trypsinization, disaggregated to a single cell suspension and incubated with 5 μL of Annexin V-FITC and 10 μL of a PI solution for 15 min in the dark. The apoptotic cells were detected using a flow cytometer (BD, San Diego, CA, USA), then quantified and the percentage of apoptotic cells measured.

KM20L2 = test system: KM20L2; parameters: method as in PMID 9051914; details: cited from earlier work
SK-MEL-5 = test system: SK-MEL-5; parameters: method as in PMID 9051914; details: cited from earlier work

CC(C)NS(=O)(=O)c1ccc2c(c1)[nH]c(=O)n2Cc1ccccc1 [5i, Benzyl-N-isopropyl-2-oxo-2,3-dihydro-1H-benzo[d]imidazole-5-sulfonamide]
IC50 (MDA-MB-468): > 200 µM | IC50 (A549): > 200 µM | IC50 (HCC1937): > 200 µM | IC50 [1]: 709 µM | Activity toward the cell lines (in words) [2]: almost no activity | melting point: 173.4 to 174.7 °C

CN1CCN(S(=O)(=O)c2ccc3c(c2)[nH]c(=O)n3CCc2ccccc2)CC1 [5l, 5-(4-Methylpiperazin-1-ylsulfonyl)-1-phenethyl-1H-benzo[d]imidazol-2(3H)-one]
IC50 (MDA-MB-468): 22 ± 1.6 µM | IC50 (A549): 15 ± 1.1 µM | IC50 (HCC1937): 18 ± 1.2 µM | IC50 [1]: 6310 µM | melting point: 218.2 to 219.6 °C

O=c1[nH]c2cc(S(=O)(=O)Nc3ccccc3)ccc2n1Cc1ccccc1 [5g, Benzyl-2-oxo-N-phenyl-2,3-dihydro-1H-benzo[d]imidazole-5-sulfonamide]
IC50 (MDA-MB-468): > 200 µM | IC50 (A549): > 200 µM | IC50 (HCC1937): 152 ± 9.8 µM | IC50 [1]: 2000 µM | Activity toward the cell lines (in words) [2]: almost no activity | melting point: 91.9 to 93.3 °C

O=c1[nH]c2cc(S(=O)(=O)NC3CCCCC3)ccc2n1Cc1ccccc1 [5c, Benzyl-N-cyclohexyl-2-oxo-2,3-dihydro-1H-benzo[d]imidazole-5-sulfonamide]
IC50 (MDA-MB-468): > 200 µM | IC50 (A549): 88 ± 6.1 µM | IC50 (HCC1937): 105 ± 8.9 µM | IC50 [1]: 248 µM | Potency compared to 5a and 5b [2]: equivalent to 10-fold inferior potency | melting point: 166.7 to 167.2 °C

CN1CCN(S(=O)(=O)c2ccc3c(c2)[nH]c(=O)n3Cc2ccccc2)CC1 [5b, Benzyl-5-(4-methylpiperazin-1-ylsulfonyl)-1H-benzo[d]imidazol-2(3H)-one]
IC50 (MDA-MB-468): 6.3 ± 0.45 µM | IC50 (A549): 3.1 ± 0.17 µM | IC50 (HCC1937): 2.6 ± 0.21 µM | IC50 [1]: 293 µM | Proportion of apoptotic cells (HCC1937 cells; HCC1937, 7.5 μM): 11.4% | Proportion of apoptotic cells (HCC1937 cells; HCC1937, 10 μM): 13.4% | Proportion of apoptotic cells (HCC1937 cells; HCC1937, 15 μM): 12.9% | Proportion of apoptotic cells (HCC1937 cells; HCC1937, 20 μM): 29% | IC50 [2]: 2.6 to 9 µM | melting point: 107.2 to 108.1 °C

O=c1[nH]c2cc(S(=O)(=O)NC3CC3)ccc2n1CCc1ccccc1 [5m, N-Cyclopropyl-2-oxo-1-phenethyl-2,3-dihydro-1H-benzo[d]imidazole-5-sulfonamide]
IC50 (MDA-MB-468): > 200 µM | IC50 (A549): > 200 µM | IC50 (HCC1937): > 200 µM | IC50 [1]: 448 µM | melting point: 217.8 to 218.9 °C

O=C1N[C@H]2n3c(cc(Br)c3Br)C(=O)N3CCC[C@]23N1 [Dibromophakellstatin]
ED50 (KM20L2): 0.11 µg/mL (≈ 0.282 µM) | ED50 (SK-MEL-5): 0.11 µg/mL (≈ 0.282 µM)

O=C(c1ccccc1)c1cccc(NS(=O)(=O)c2ccc3c(c2)[nH]c(=O)n3Cc2ccccc2)c1 [5f, N-(3-Benzoylphenyl)-1-benzyl-2-oxo-2,3-dihydro-1H-benzo[d]imidazole-5-sulfonamide]
IC50 (MDA-MB-468): 82 ± 6.1 µM | IC50 (A549): > 200 µM | IC50 (HCC1937): > 200 µM | IC50 [1]: > 10000 µM | Activity toward the cell lines (in words) [2]: almost no activity | melting point: 85.2 to 86.3 °C

O=c1[nH]c2cc(S(=O)(=O)NC3CCCCC3)ccc2n1CCc1ccccc1 [5k, N-Cyclohexyl-2-oxo-1-phenethyl-2,3-dihydro-1H-benzo[d]imidazole-5-sulfonamide]
IC50 (MDA-MB-468): 135 ± 9.7 µM | IC50 (A549): 116 ± 7.6 µM | IC50 (HCC1937): > 200 µM | IC50 [1]: 384 µM | melting point: 187 to 188.5 °C

O=c1[nH]c2cc(S(=O)(=O)NCc3ccccc3)ccc2n1Cc1ccccc1 [5e, N,1-Dibenzyl-2-oxo-2,3-dihydro-1H-benzo[d]imidazole-5-sulfonamide]
IC50 (MDA-MB-468): > 200 µM | IC50 (A549): > 200 µM | IC50 (HCC1937): 127 ± 9.9 µM | IC50 [1]: > 10000 µM | Activity toward the cell lines (in words) [2]: almost no activity | melting point: 160.6 to 185.9 °C

O=c1[nH]c2cc(S(=O)(=O)N3CCCCC3)ccc2n1CCc1ccccc1 [5n, Phenethyl-5-(piperidin-1-ylsulfonyl)-1H-benzo[d]imidazol-2(3H)-one]
IC50 (MDA-MB-468): 12 ± 1.02 µM | IC50 (A549): 16 ± 0.9 µM | IC50 (HCC1937): 22 ± 1.3 µM | IC50 [1]: > 10000 µM | melting point: 183.3 to 184.3 °C

O=c1[nH]c2cc(S(=O)(=O)N3CCOCC3)ccc2n1Cc1ccccc1 [5a, Benzyl-5-(morpholinosulfonyl)-1H-benzo[d]imidazol-2(3H)-one]
IC50 (MDA-MB-468): 9 ± 0.67 µM | IC50 (A549): 5.2 ± 0.35 µM | IC50 (HCC1937): 7.8 ± 0.49 µM | IC50 [1]: > 10000 µM | IC50 [2]: 2.6 to 9 µM | melting point: 198.5 to 200.1 °C

COc1cccc2c1C(=O)c1c(O)c3c(c(O)c1C2=O)C[C@@](O)(C(=O)CO)C[C@@H]3O[C@H]1C[C@H](N)[C@H](O)[C@H](C)O1 [Doxorubicin, reference compound]
IC50 (MDA-MB-468): 2.7 ± 0.19 µM | IC50 (A549): 2.5 ± 0.13 µM | IC50 (HCC1937): 4.8 ± 0.22 µM | IC50 [1]: 12.2 µM

Cc1ccccc1NS(=O)(=O)c1ccc2c(c1)[nH]c(=O)n2Cc1ccccc1 [5j, Benzyl-2-oxo-N-o-tolyl-2,3-dihydro-1H-benzo[d]imidazole-5-sulfonamide]
IC50 (MDA-MB-468): > 200 µM | IC50 (A549): > 200 µM | IC50 (HCC1937): > 200 µM | IC50 [1]: 666 µM | Activity toward the cell lines (in words) [2]: almost no activity | melting point: 223.6 to 225.7 °C

O=c1[nH]c2cc(S(=O)(=O)N3CCCCC3)ccc2n1Cc1ccccc1 [5d, Benzyl-5-(piperidin-1-ylsulfonyl)-1H-benzo[d]imidazol-2(3H)-one]
IC50 (MDA-MB-468): 73 ± 6.9 µM | IC50 (A549): 77 ± 6.8 µM | IC50 (HCC1937): 85 ± 7.1 µM | IC50 [1]: 756 µM | Potency compared to 5a and 5b [2]: equivalent to 10-fold inferior potency | melting point: 189.4 to 190.5 °C

O=c1[nH]c2cc(S(=O)(=O)N3CCOCC3)ccc2n1CCc1ccccc1 [5o, 5-(Morpholinosulfonyl)-1-phenethyl-1H-benzo[d]imidazol-2(3H)-one]
IC50 (MDA-MB-468): 15 ± 0.93 µM | IC50 (A549): 9.7 ± 0.88 µM | IC50 (HCC1937): 11 ± 0.71 µM | IC50 [1]: > 10000 µM | melting point: 102.3 to 104.1 °C

O=c1[nH]c2cc(S(=O)(=O)NC3CC3)ccc2n1Cc1ccccc1 [5h, Benzyl-N-cyclopropyl-2-oxo-2,3-dihydro-1H-benzo[d]imidazole-5-sulfonamide]
IC50 (MDA-MB-468): > 200 µM | IC50 (A549): > 200 µM | IC50 (HCC1937): > 200 µM | IC50 [1]: 370 µM | Activity toward the cell lines (in words) [2]: almost no activity | melting point: 168.6 to 170.3 °C
